Reference: patent US20200032249A1, “LABELING, ISOLATION, & ANALYSIS OF RNA FROM RARE CELL POPULATIONS” (priority 2017, published 2020)
Like-named read-outs stand apart in the source and are kept apart here.

Columns and labels:
MDA-MB-231 cells = test: co-culture of CD-expressing MDA231 cells with unlabeled control cells, anti-BrdU immunostaining; type: cell-based, human; details: CD only, without UPRT and thymine
Protocol: FIG. 1a-f. Labeling and purification of RNA by CD expression and 5-FC treatment. FIG. 1a—Schematic diagram showing RNA labeling using CD and 5-FC. FIG. 1b—Chemical reactions steps involved in the labeling of RNA using CD and 5-FC. The dotted arrow indicates the intermediary steps that are not shown. FIG. 1c Relative fold enrichment of mRNA isolated by Flura-tagging. 293T cells expressing CD or unlabeled controls were treated with 5-FC for the indicated times, labeled mRNAs were immunopurified using anti-BrdU antibody, and the levels of labeled mRNAs of the indicated genes relative to corresponding non-immunoprecipitated inputs normalized to immunopurified mRNAs from cells not expressing CD were quantified by RT-PCR. […] FIG. 1d—Schematic diagram of the constructs used for inducible expression of UPRT and/or CD, and the experimental design. Transduced RFP+MDA231 cells were mixed with unlabeled cells, treated with doxycycline for 24 h and then 5-FC for 4-12 h. Cells were analyzed by immunofluorescence or harvested for RNA analysis. FIG. 1e—Flura-tagging in MDA231 cells in vitro. […] The fold enrichment of the indicated representative human genes over mouse housekeeping genes (mHPRT1 and mLDH1) was measured by RT-PCR (n=3±S.E.). […]
Next, we determined whether 5-FU-labeled mRNAs can be specifically and efficiently isolated by immunoprecipitation. […]

CD/UPRT-expressing cells = type: cell-based; details: human
Protocol: FIG. 2a-b. Flura-tagging has minimal cytotoxicity. FIG. 2a—Effect of Flura-tagging on stress granule formation. MDA231 cells were treated with 5-FC for the indicated times, and the formation of stress granules was detected by G3BP immunostaining. Control cells were either treated with water or sodium arsenite (Arsenite) for one hour. Arrows indicate stress granules (n=3). Scale bar=20 μM. FIG. 2b—Effect of Flura-tagging on transcription. RNA expression in control cells was compared to CD/UPRT-expressing cells treated with the indicated concentrations of 5-FC for 4 h or 12 h. Each dot represents a gene, with the outer/lighter gray dots indicating genes showing more than 2-fold differential expression, as determined by DESeq2 (n=2). The dotted line represents the four-fold cutoff mark.
For a more sensitive analysis of potential alterations caused by Flura-tagging, we investigated the transcriptional changes occurring under these experimental conditions. We compared the transcriptome of cells treated with two different concentrations of 5-FC (50 μM and 250 μM) at two different time points (4 h and 12 h) with that of control cells, using RNA-seq. […] This number increased to 190, 1325 and 1965 genes in cells treated with 250 μM 5-FC for 4 h, 50 μM 5-FC for 12 h, and 250 μM 5-FC for 12 h, respectively (FIG. 2b). Moreover, a majority of these differences in gene expression were within a four-fold range (FIG. 2b).
RNA-seq library preparation. Total RNA was purified using Qiagen RNeasy Mini Kit. Quality and quantity was checked by Agilent […]. 10 ng RNA per sample was used for library construction with Sample Prep Kit v2 (Illumina) according to manufacturer's instructions. Libraries were multiplex sequenced libraries on a Hiseq2500 platform, and more than 25 million raw paired-end reads were generated for each sample.
Reads were quality checked using FastQC v0.11.5 and mapped to a human (hg19) or hybrid human-mouse (hg19-mm10) genome with STAR2.5.2b (22) using standard settings for paired reads. Uniquely mapped reads were assigned to annotated genes with HTSeq v0.6.1p1 (23) with default settings. Read counts were normalized by library size, and differential gene expression analysis based on a negative binomial distribution was performed using DESeq2 v3.4 (24). In general, thresholds for differential expression were set as follows: adjusted p-value<0.05, fold change >2.0 or <0.5, and average normalized read count >10. Genes were considered detectable in the immunoprecipitation samples with a normalized read count >100. Gene set enrichment analysis was performed using GSVA v3.4 (25) and previously curated gene sets (26): HALLMARK_TGF_BETA_SIGNALING, HALLMARK_HEDGEHOG_SIGNALING, HALLMARK_WNT_BETA_CATENIN_SIGNALING, HALLMARK_PI3_K_AKT_MTOR_SIGNALING, HALLMARK_NOTCH_SIGNALING, HALLMARK_KRAS_SIGNALING_UP, CORDENONSI_YAP_CONSERVED_SIGNATURE, HALLMARK_IL6_JAK_STAT3_SIGNALING.

**Q.** Nc1nc(=O)[nH]cc1F [5-FC, 5-fluorocytosine] was tested. Which “5-FU-labeling of neighboring cells not expressing CD” value (MDA-MB-231 cells) did it give?
**A.** led to 5-FU-labeling of cells that did not express CD as well

**Q.** And the “genes with more than 4-fold difference” value (CD/UPRT-expressing cells; 4 h, 50 μM)?
**A.** 10 genes

**Q.** And the “genes with statistically significant differences in expression vs control cells” value (CD/UPRT-expressing cells; 4 h, 50 μM)?
**A.** 113 genes

**Q.** And the “genes with more than 4-fold difference” value (CD/UPRT-expressing cells; 4 h, 250 μM)?
**A.** 15 genes

**Q.** And the “genes with statistically significant differences in expression vs control cells” value (CD/UPRT-expressing cells; 4 h, 250 μM)?
**A.** 190 genes

**Q.** And the “genes with more than 4-fold difference” value (CD/UPRT-expressing cells; 12 h, 50 μM)?
**A.** 102 genes

**Q.** What about the “genes with statistically significant differences in expression vs control cells” value (CD/UPRT-expressing cells; 12 h, 50 μM) of the same compound?
**A.** 1325 genes

**Q.** And the “genes with more than 4-fold difference” value (CD/UPRT-expressing cells; 12 h, 250 μM)?
**A.** 182 genes

**Q.** And the “genes with statistically significant differences in expression vs control cells” value (CD/UPRT-expressing cells; 12 h, 250 μM)?
**A.** 1965 genes
